Experimental data reported in ChEMBL document CHEMBL1146637, “Structure-activity relationship in the oxazolidinone-quinolone hybrid series: influence of the central spacer on the antibacterial activity and the mode of action” (Bioorg Med Chem Lett, 2003).
Converted amounts (≈) assume the structure as drawn.

Tests used:
[1] = system: Escherichia coli; assay: In vitro inhibitory activity against protein synthesis was determined by transcription/translation assay with Escherichia coli S30 Extract System.; assay type: functional
[2] = system: Escherichia coli; assay: In vitro antibacterial activity against Escherichia coli ATCC 25922 (Ecol) was determined; assay type: functional
[3] = system: Staphylococcus aureus; assay: In vitro antibacterial activity against ciprofloxacin and methicillin resistant Staphylococcus aureus (Sau2CIP) was determined; assay type: functional
[4] = system: Escherichia coli; assay: In vitro antibacterial activity against Escherichia coli AS19 (Eco2), permeable mutant was determined; assay type: functional
[5] = system: Enterococcus faecium; assay: In vitro antibacterial activity against vancomycin and ciprofloxacin resistant Enterococcus faecium (Efm CIP) was determined; assay type: functional
[6] = system: Staphylococcus aureus; assay: In vitro antibacterial activity against oxazolidinone Linezolid resistant Staphylococcus aureus (Sau3LZD) was determined; assay type: functional
[7] = system: Haemophilus influenzae; assay: In vitro antibacterial activity against Haemophilus influenzae 11 (Hin) was determined; assay type: functional
[8] = system: Enterococcus faecalis; assay: In vitro antibacterial activity against Enterococcus faecalis ATCC 29212 (Efs) was determined; assay type: functional
[9] = system: Staphylococcus aureus; assay: In vitro antibacterial activity against […] Staphylococcus aureus ATCC 29213 (Saul); assay type: functional
[10] = target: DNA gyrase (Escherichia coli, UniProt P0AES4+P0AES6); assay: Inhibitory activity against DNA gyrase enzyme was determined by supercoiling assay with Escherichia coli DNA gyrase; assay type: protein-complex assay
[11] = Inhibitory activity against Escherichia coli Topoisomerase IV in relaxation assay; assay type: functional

SMILES | IC50 [1] | MIC [2] | MIC [3] | MIC [4] | MIC [5] | MIC [6] | MIC [7] | MIC [8] | MIC [9] | IC50 [10] | IC50 [11]
CC(=O)NC[C@H]1CN(c2ccc(N3CCOCC3)c(F)c2)C(=O)O1 [LINEZOLID] | 4.1 µM | > 64 µg/mL | 1 µg/mL (≈ 2.96 µM) | 8 µg/mL (≈ 23.7 µM) | 2 µg/mL (≈ 5.93 µM) | 64 µg/mL (≈ 190 µM) | 8 µg/mL (≈ 23.7 µM) |  |  |  | 
CC(=O)NC[C@H]1CN(c2ccc(OCCC3CCN(c4nc5c(cc4F)c(=O)c(C(=O)O)cn5C4CC4)CC3)c(F)c2)C(=O)O1 |  | > 32 µg/mL | 0.125 µg/mL (≈ 0.2 µM) | ≤ 0.06 µg/mL | 0.125 µg/mL (≈ 0.2 µM) | 1 µg/mL (≈ 1.6 µM) | 2 µg/mL (≈ 3.2 µM) | 0.125 µg/mL (≈ 0.2 µM) | 0.125 µg/mL (≈ 0.2 µM) |  | 
CC(=O)NC[C@H]1CN(c2ccc(OCCC3CCN(c4nc5c(cc4F)c(=O)c(C(=O)O)cn5C4CC4)C3)c(F)c2)C(=O)O1 (stereo partly drawn) |  | 2 µg/mL (≈ 3.27 µM) | 0.125 µg/mL (≈ 0.204 µM) | ≤ 0.06 µg/mL | 0.125 µg/mL (≈ 0.204 µM) | 0.125 µg/mL (≈ 0.204 µM) | 0.5 µg/mL (≈ 0.818 µM) | 0.06 µg/mL (≈ 0.0981 µM) | 0.125 µg/mL (≈ 0.204 µM) |  | 
CC(=O)NC[C@H]1CN(c2ccc(OC[C@@H]3CCN(c4nc5c(cc4F)c(=O)c(C(=O)O)cn5C4CC4)C3)c(F)c2)C(=O)O1 |  | 1 µg/mL (≈ 1.67 µM) | 0.25 µg/mL (≈ 0.418 µM) | ≤ 0.06 µg/mL | 0.5 µg/mL (≈ 0.837 µM) | ≤ 0.06 µg/mL | 0.125 µg/mL (≈ 0.209 µM) | 0.125 µg/mL (≈ 0.209 µM) | ≤ 0.06 µg/mL |  | 
CC(=O)NC[C@H]1CN(c2ccc(N[C@@H]3CCN(c4nc5c(cc4F)c(=O)c(C(=O)O)cn5C4CC4)C3)c(F)c2)C(=O)O1 |  | 0.5 µg/mL (≈ 0.858 µM) | 1 µg/mL (≈ 1.72 µM) | ≤ 0.06 µg/mL | 8 µg/mL (≈ 13.7 µM) | ≤ 0.06 µg/mL | ≤ 0.06 µg/mL | ≤ 0.06 µg/mL | ≤ 0.06 µg/mL |  | 
CC(=O)NC[C@H]1CN(c2ccc(OCC3CCN(c4nc5c(cc4F)c(=O)c(C(=O)O)cn5C4CC4)C3)c(F)c2)C(=O)O1 (stereo partly drawn) | 1.5 µM | 1 µg/mL (≈ 1.67 µM) | 0.125 µg/mL (≈ 0.209 µM) | ≤ 0.06 µg/mL | 0.25 µg/mL (≈ 0.418 µM) | ≤ 0.06 µg/mL | 0.125 µg/mL (≈ 0.209 µM) | 0.125 µg/mL (≈ 0.209 µM) | 0.125 µg/mL (≈ 0.209 µM) | 2 µM | 
CC(=O)NC[C@H]1CN(c2ccc(OC3CCN(c4nc5c(cc4F)c(=O)c(C(=O)O)cn5C4CC4)CC3)c(F)c2)C(=O)O1 | 5.2 µM | 32 µg/mL (≈ 53.5 µM) | 0.25 µg/mL (≈ 0.418 µM) | 0.25 µg/mL (≈ 0.418 µM) | 0.25 µg/mL (≈ 0.418 µM) | 1 µg/mL (≈ 1.67 µM) | 1 µg/mL (≈ 1.67 µM) | 0.125 µg/mL (≈ 0.209 µM) | 0.25 µg/mL (≈ 0.418 µM) | 50 µM | 5 µM
CC(=O)NC[C@H]1CN(c2ccc(OC3CCCN(c4nc5c(cc4F)c(=O)c(C(=O)O)cn5C4CC4)C3)c(F)c2)C(=O)O1 (stereo partly drawn) |  | > 32 µg/mL | 16 µg/mL (≈ 26.8 µM) | 8 µg/mL (≈ 13.4 µM) | > 32 µg/mL | 16 µg/mL (≈ 26.8 µM) | 2 µg/mL (≈ 3.35 µM) | 16 µg/mL (≈ 26.8 µM) | 32 µg/mL (≈ 53.5 µM) |  | 
